Experimental data: patent US20150136233A1, “ORGANIC PHOTOVOLTAIC DEVICES COMPRISING FULLERENES AND DERIVATIVES” (The Regents of the University of California, priority 2013, published 2015)

Columns and labels:
[1] = LUMO energy level by cyclic voltammetry; type: physicochemical; settings: for LUMO Energy Level: cyclic voltammetry, onset of first reduction, ferrocene internal reference, o-dichlorobenzene/acetonitrile 4:1
Experimental: The electronic property of the synthesized fullerenes are characterized by cyclic voltammetry (CV) using a Bio-Logic Multi-channel Potentiostat with Pt as a counter electrode, Ag/Ag+ as a reference electrode and ferrocene as an internal reference, with 4:1 v/v ratio of o-dichlorobenzene and acetonitrile as solvent and 0.1 M tetrabutylammonium hexafluorophosphate as electrolyte at a scan rate of 100 mV/s. […] The LUMO levels are calculated according to the following equation 2 using the onset of the first reduction. The data are listed in Table 2, LUMOs of C60, C70, PCBM, Bis-PCBM, ICMA and ICBA were measured under the same condition and listed too as reference.
ELUMO=[(EFLN(Vs Ag/Ag+)(E^1/2Ferrocene(Vs Ag/Ag+)]−4.8 eV (equation 2)

[2] = references [15, 18]; cited from earlier work

Molecule | LUMO increase compared to pristine C60 [1] | LUMO Energy Level [1] [eV] | LUMO higher than that of PCBM [1] [eV] | LUMO of bis-addition fullerene higher than LUMO of the mono-addition fullerene (PCBM, ICMA respectively) [2]
1′,4′-dihydro-naphtho[2′,3′:1,2][5,6]fullerene-C60 [IC60MA] | about 0.1 eV | −3.76 | – | –
COC(=O)CCCC1(c2ccccc2)C23c4c5c6c7c8c9c(c%10c%11c2c2c%12c4c4c%13c5c5c7c7c8c8c%14c9c%10c9c%10c%11c2c2c%11c%12c4c4c%12c%13c5c5c7c7c8c8c%14c9c9c%10c2c2c%11c4c4c%12c5c7c5c8c9c2c45)C613 (stereo not shown) [PC61BM, [6,6]-phenyl C61-butyric acid methyl ester] | about 0.1 eV | −3.80 | – | –
bis(1-[3-(methoxycarbonyl)propyl]-1-phenyl)[6.6]C62 [Bis-PC61BM] | – | −3.72 | 0.1 | about 0.1 eV
